Test results taken from EP0084677A1, “New compound having mucoregulating and fluidifying activity, process for its production and relative pharmaceutical compositions” (priority 1982, dated 1983).

Legend:
Wistar rat = test: Acute toxicity (Litchfield and Wilcoxon method), rat; type: in vivo
Description: (§1) The acute toxicity has been determined in Swiss mouse and in Wistar rat for different administra tion routes, according to the method of Litch- field J.T. and Wilcoxon LJ. Pharm. Exp. Therap. 96, 99-113 (1949)]. The results obtained are reported in the following Table I; from the same it can be pointed out how AFP 736 is endowed with a very low acute toxicity.

Swiss mouse = test: Acute toxicity (Litchfield and Wilcoxon method), mouse; type: in vivo
Description: as §1

male Wistar rat = test: Bronchosecretogogue activity (method of Mawatari); type: in vivo; conditions: 500 mg/kg/os, FlNa = Sodium fluoresceine
male rabbit = test: Mucosecretolytic activity (technique of Giraldez et al.); type: in vivo; conditions: 500 mg/kg/os
[1] = tested on: tracheo-bronchial mucus from rabbit; test: Fluidifying activity "in vivo" (microviscosimeter on tracheo-bronchial mucus); conditions: 500 mg/kg/os

Molecule | LD50 (Wistar rat; i.p.) | LD50 (Wistar rat; os) | LD50 (Swiss mouse; i.p.) | LD50 (Swiss mouse; os) | % Increase of FlNa in comparison with controls (male Wistar rat) | % Increase of secretion in comparison with controls (male rabbit) | % Reduction of mucus viscosity [1]
5-[(2-metho xy-phenoxy) caxbonyloxy]- α,α, 4-trimethyl-3-cyclohexen-1-methanol [AFP 736] | 2340 mg/kg | >4000 mg/kg | 1750 mg/kg | 3100 mg/kg | 79.3% | 45.5% | 32.2%
NC(CSCC(=O)O)C(=O)O (centres unmarked) [Carboxy-methylcysteine, carboxymethylcysteine] | – | – | – | – | 39.7% | 40.2% | –
COc1ccccc1O [Guaiacol, 2-methoxyphenol] | – | – | – | – | – | – | 4.1%
COc1ccccc1OCC(O)CO (centres unmarked) [Guaiphe-nesine, guaiphenesin] | – | – | – | – | 12.6% | – | –
CC1=CCC(C(C)(C)O)CC1O (centres unmarked) [Sobrerol, 2-methyl-5-(1-hydroxy-1-methyl-ethyl)-2-cyclohexen-1-ol] | – | – | – | – | 33.4% | 36.8% | 15.6%
